The numbers were not newly measured in the CATMoS acute toxicity set (Mansouri et al. 2021), which cites them from elsewhere.

SMILES strings stand for the structures.

A short description of the series: rat acute oral toxicity. The following applies: in vivo. From the text: […]The data set underlying the modeling effort for this project was initially compiled by NICEATM and U.S. EPA’s CCTE. Briefly, LD50 data were collected from rat acute oral systemic toxicity tests, including limit tests, ranges/confidence intervals, and discrete LD50 values. The full data set included 21,200 LD50 entries for 15,688 substances. […] Data were reviewed to ensure that LD50 values with obvious errors in the extracted data such as unit conversion errors (e.g., comma and decimal separator misplacements) were either fixed or removed. After this review, 16,209 LD50 values remained. Many of the chemicals represented had multiple LD50 entries, requiring that a single representative value per Chemical Abstracts Service Registry Number (CASRN) identifier be defined to facilitate modeling efforts. Based on ATWG feedback and to define the representative LD50 as a protective value while accounting for the distribution across multiple LD50s, the median of the lowest quartile was computed using only discrete LD50 values (omitting limit test data and range and confidence interval data). A detailed summary of the data compilation is available online on the NICEATM webpage dedicated to the collaborative modeling project (NTP 2020).
[…][…] For categorical designations, limit test and range/confidence interval LD50 data were integrated wherever possible. As such, the number of chemicals with end point values/calls varies across the modeling end points (Table 3) based on whether chemicals had representative LD50 values and/or other data. If a chemical had both, the representative value was used to determine categorical calls rather than limit test data. Some data were useable only for certain end points and categories depending on the thresholds. For example, ranges that spanned multiple hazard categories were considered only for the binary (very toxic/nontoxic) end points and omitted from rendering a determination for hazard category assignment.
[…]The final data set comprising 11,992 chemicals was split into training and evaluation sets […], respectively. This process was performed semirandomly by ordering chemicals based on the five end points (categorical and continuous LD50 values) and partitioning every fourth record into the evaluation set accordingly. This approach was taken to ensure an equivalent distribution of the LD50 values and the different hazard categories between the training and the evaluation sets without supervised sampling of the chemicals based on structures (Figure 1A). The sources of the chemical structures were also kept equivalent between the two sets, with chemical structures obtained from DSSTox, being the highest quality, representing over 75% of each set (Figure 1B).
As usually defined, the LD50 is the dose expected to kill half of the subjects tested. With `CC(=O)OCCC(C)C`, the LD50 was 16600 mg/kg.
For `CC(C)CC(C)CC(O)CC(C)C` (configuration not stated), the LD50 was 17000 mg/kg.
Consider `C=CCSC(C)C1(CC(C)C)C(=O)N=C(O)NC1=O` (configuration not stated), for which the median lethal dose (LD50) was 417 mg/kg.
Regarding `CCOc1ccccc1C(N)=O`, the 50% lethal dose (LD50) is 2200 mg/kg.
Take `COC(=O)C1=C(C)NC(C)=C(C(=O)O[C@@H]2CCCN(Cc3ccccc3)C2)[C@@H]1c1cccc([N+](=O)[O-])c1` (racemic): the 50% lethal dose (LD50) is 87.6 mg/kg.
In the case of `CS(=O)(=O)c1ccc(O)cc1`, the LD50 is 3160 mg/kg.
As for `O=C(Cn1ccnc1)c1ccc2ccccc2c1`, the LD50 was 504 mg/kg.
`CC(=O)OCCCl`: the LD50 was 10 mg/kg.
Consider `CCc1cccc(C)c1N`, for which the LD50 is 885 mg/kg.
With `CON(C(=O)CSP(=S)(OC)OC)C(C)C`, the LD50 is 260 mg/kg.
In the case of `C=CC(=C)CCCC(C)(C)OC(C)=O`, the LD50 is 6300 mg/kg.
As to `C=C(CC(C)(C)c1ccccc1)c1ccccc1`, the 50% lethal dose (LD50) is 300 mg/kg.
Take `C=C(C)C1CC=C(C)C(O)C1` (configuration not stated): the LD50 was 3000 mg/kg.
On to `COC(=O)C(=O)C(O)=C(O)OC`, for which the LD50 is 8000 mg/kg.
Consider `CCOC(C1=NCC(C)(C)CN1)c1cccc(Cl)c1` (configuration not stated), for which the LD50 is 95 mg/kg.
`O=c1n(CC2CO2)c(=O)n(CC2CO2)n1CC1CO1` (configuration not stated): the LD50 is 250 mg/kg.
As to `COc1cc(OC)c(C(=O)CCCN2CCCC2)c(OC)c1`, the LD50 was 410 mg/kg.
Regarding `COc1ccc([N+](=O)[O-])cc1CNCCO`, the LD50 is 30 mg/kg.
For `O=C(NNCc1ccccc1)c1ccccn1`, the 50% lethal dose (LD50) was 240 mg/kg.
Turning to `CCOP(=S)(OCC)OCCSCC`, the LD50 is 7.5 mg/kg.
For `CCC(CC)COCCOCCCN1C(=O)C2C3C=CC(C3)C2C1=O` (configuration not stated), the LD50 is 9500 mg/kg.
As for `CC[N+]1(CC)CCC(OC(=O)C(O)(c2ccccc2)c2ccccc2)C1` (configuration not stated), the LD50 is 760 mg/kg.
`CCOP(=O)(OCC)C(SCC)(Sc1ccccc1)P(=O)(OCC)OCC`: the LD50 is 24 mg/kg.
On to `COC(=O)c1cccc(C(=O)OC)c1`, for which the median lethal dose (LD50) is 4390 mg/kg.
With `c1ccc2c(c1)Oc1ccccc1O2`, the LD50 was 1220 mg/kg.
Take `CCCCC(CC)Cc1ccccc1O` (configuration not stated): the LD50 is 2460 mg/kg.
Take `CC(c1ccc(C(F)(F)F)nc1)S(C)(=O)=NC#N` (configuration not stated): the LD50 is 1000 mg/kg.
Consider `O=C(O)C(F)(F)C(F)(F)C(F)(F)C(F)(F)C(F)(F)C(F)(F)C(F)(F)C(F)F`, for which the 50% lethal dose (LD50) is 821 mg/kg.
As to `C#CCN(C)CCCOc1ccc(Cl)cc1Cl`, the median lethal dose (LD50) was 210 mg/kg.
On to `CCC[N+](=O)[O-]`, for which the LD50 was 455 mg/kg.
On to `CCOC(=O)CN(C)N=O`, for which the LD50 is 4000 mg/kg.
As to `CC(CC(C)(C)O)OCCC#N` (configuration not stated), the LD50 is 3200 mg/kg.
Turning to `Cc1cccc2ccccc12`, the LD50 is 1840 mg/kg.
As to `O=CCCCC(O)C=O` (configuration not stated), the LD50 was 17000 mg/kg.
Turning to `BrCBr`, the LD50 is 108 mg/kg.
As for `CCCCC(=O)OCC(=O)[C@H]1[C@H](C)C[C@H]2[C@@H]3C[C@H](F)C4=CC(=O)C=C[C@]4(C)[C@@]3(F)[C@@H](O)C[C@@]21C`, the LD50 was 3100 mg/kg.
Consider `CC(C)C12C=CC(C)(CC1)OO2` (configuration not stated), for which the LD50 is 200 mg/kg.
On to `CCOP(=S)(OCC)OCCS(=O)CC` (configuration not stated), for which the LD50 is 100 mg/kg.
For the compound `C[Si](Cl)(Cl)CCCC#N`, the LD50 was 650 mg/kg.
For `NC1CCS(=O)(=O)C1` (configuration not stated), the LD50 was 17900 mg/kg.
In the case of `OC1(c2ccccc2)c2ccccc2C2=NCCN21` (configuration not stated), the LD50 was 300 mg/kg.
Turning to `CC(C)(O)c1ccccc1`, the LD50 was 1300 mg/kg.
Turning to `C[N+](C)(C)Cc1ccccc1`, the LD50 was 25 mg/kg.
Regarding `CCCCCCCC(C)=O`, the LD50 was 3200 mg/kg.
For the compound `NCCN1CCNCC1`, the LD50 is 2140 mg/kg.
Consider `CC(C)C(=O)N(C)C(=O)Oc1cccc(C(C)C)c1`, for which the LD50 was 631 mg/kg.
With `CCCC(=O)c1ccc2c(c1)N(CCCN1CCOCC1)c1ccccc1S2`, the LD50 was 3500 mg/kg.
Turning to `C=CCC1=C(C)[C@H](OC(=O)[C@H]2[C@H](C=C(C)C)C2(C)C)CC1=O` (relative stereo), the 50% lethal dose (LD50) is 1320 mg/kg.
On to `O=C(OC1CCC(N2CCCCC2)CC1)c1ccc([N+](=O)[O-])cc1` (configuration not stated), for which the LD50 is 3250 mg/kg.
Regarding `C#CC(=O)C=CC`, the LD50 is 71 mg/kg.
In the case of `ClC=C(Cl)CCl`, the median lethal dose (LD50) was 616 mg/kg.
For `SCc1ccccc1`, the median lethal dose (LD50) was 493 mg/kg.
